Usually IC50 stands for the concentration at which inhibition is half-maximal.

Structures are written as SMILES.

The assay concerns the target T1, human recombinant P2X7 receptor (Homo sapiens, UniProt Q99572).
T1 construct: expressed in transfected cells
T1 sequence (Q99572 1-595): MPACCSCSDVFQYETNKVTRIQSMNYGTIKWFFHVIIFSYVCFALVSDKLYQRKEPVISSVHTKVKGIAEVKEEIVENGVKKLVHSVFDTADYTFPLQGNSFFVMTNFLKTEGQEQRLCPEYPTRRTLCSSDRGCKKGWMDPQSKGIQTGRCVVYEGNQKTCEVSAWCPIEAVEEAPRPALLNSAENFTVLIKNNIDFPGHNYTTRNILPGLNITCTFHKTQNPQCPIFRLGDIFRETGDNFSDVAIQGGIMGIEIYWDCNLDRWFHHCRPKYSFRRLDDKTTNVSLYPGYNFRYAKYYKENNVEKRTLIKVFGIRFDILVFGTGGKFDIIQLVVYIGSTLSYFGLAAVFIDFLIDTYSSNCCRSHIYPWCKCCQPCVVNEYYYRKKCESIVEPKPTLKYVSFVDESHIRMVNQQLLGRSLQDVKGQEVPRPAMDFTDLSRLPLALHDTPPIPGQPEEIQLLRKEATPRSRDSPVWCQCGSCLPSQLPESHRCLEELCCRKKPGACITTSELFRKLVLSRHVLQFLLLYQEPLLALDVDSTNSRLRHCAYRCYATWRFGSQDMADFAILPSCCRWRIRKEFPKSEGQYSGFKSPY
In words: YO-PRO assay (YO-PRO-1 uptake) in HEK cells stably expressing P2X7. Format: cell-based. Particulars: HEK-293 cells expressing human recombinant P2X7 receptor; ATP 250 μM, 90 minutes; YO-PRO-1 fluorescence (FLIPR tetra); read-out: IC50 (antagonistic activity with respect to the P2X7 receptor). The gist of the method:
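Antagonist serially diluted (duplicates) on P2X7-expressing HEK cells in buffer with 0.5 μM YO-PRO-1; dye uptake followed on FLIPR Tetra over four time points. IC50 from maximum fluorescence intensity versus compound concentration.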

With `CN(c1ccc(Cl)c(C(=O)NCC2(O)CCCCC2)c1)c1cc(S(C)(=O)=O)ncn1` [Example 66, 2-Chloro-N-(1-hydroxy-cyclohexylmethyl)-5-[(6-methanesulfonyl-pyrimidin-4-yl)-methyl-amino]-benzamide], the IC50 worked out at 158 nM.

On to `O=C(NCC1(O)CCCCC1)c1cc(Nc2cnccn2)ccc1Cl` [Example 78, 2-Chloro-N-(1-hydroxy-cyclohexylmethyl)-5-(pyrazin-2-ylamino)-benzamide], for which the IC50 stood at 439 nM.

`COc1cnc(N(C)c2ccc(Cl)c(C(=O)NCC3(O)CCCCC3)c2)cn1` [Example 88, 2-Chloro-N-(1-hydroxy-cyclohexylmethyl)-5-[(5-methoxy-pyrazin-2-yl)-methyl-amino]-benzamide]: the IC50 came to 302 nM.

As for `O=C(NCC1(O)CCCCC1)c1cc(Sc2ccccn2)ccc1Cl` [Example 132, 2-Chloro-N-(1-hydroxy-cyclohexylmethyl)-5-(pyridin-2-ylsulfanyl)-benzamide], the IC50 was 46 nM.

Take `O=C(NCC1(O)CCCCC1)c1cc(N(CC2CCCC2)c2cc[nH]c(=O)n2)ccc1Cl` [Example 36, 2-Chloro-5-[cyclopentylmethyl-(2-oxo-1,2-dihydro-pyrimidin-4-yl)-amino]-N-(1-hydroxy-cyclohexylmethyl)-benzamide]: the IC50 was determined as 185 nM.

For `CSc1nccc(Cc2ccc(Cl)c(C(=O)NCC3(O)CCCCC3)c2)n1` [Example 146, 2-Chloro-N-(1-hydroxy-cyclohexylmethyl)-5-(2-methylsulfanyl-pyrimidin-4-ylmethyl)-benzamide], the IC50 worked out at 400 nM.

For `CSc1nccc(Nc2ccc(Cl)c(C(=O)N[C@H](C)C3CCCCC3)c2)n1` [Example 59, 2-Chloro-N—((R)-1-cyclohexyl-ethyl)-5-(2-methylsulfanyl-pyrimidin-4-ylamino)-benzamide], the IC50 turned out to be 1810 nM.

As for `O=C(NCC1(O)CCCCC1)c1cc([S+]([O-])c2ccnc(Cl)n2)ccc1Cl` (racemic) [Example 136, rac-2-Chloro-5-(2-chloro-pyrimidine-4-sulfinyl)-N-(1-hydroxy-cyclohexylmethyl)-benzamide], the IC50 was 640 nM.

Turning to `O=C(NCC1(O)CCCCC1)c1cc(C(F)c2cc[nH]c(=O)n2)ccc1Cl` (racemic) [Example 152, rac-2-Chloro-5-[fluoro-(2-oxo-1,2-dihydro-pyrimidin-4-yl)-methyl]-N-(1-hydroxy-cyclohexylmethyl)-benzamide], the IC50 amounted to 25 nM.

Turning to `CN(c1ccc(Cl)c(C(=O)NCC2(O)CCCCC2)c1)c1cncc(=O)[nH]1` [Example 85, 2-Chloro-N-(1-hydroxy-cyclohexylmethyl)-5-[methyl-(6-oxo-1,6-dihydro-pyrazin-2-yl)-amino]-benzamide], the IC50 turned out to be 177 nM.

Turning to `COc1nccc(C(C)(O)c2ccc(Cl)c(C(=O)NCC3(O)CCCCC3)c2)n1` (racemic) [Example 159, rac-2-Chloro-N-(1-hydroxy-cyclohexylmethyl)-5-[1-hydroxy-1-(2-methoxy-pyrimidin-4-yl)-ethyl]-benzamide], the IC50 amounted to 346 nM.

Turning to `COc1cc(N(C)c2ccc(Cl)c(C(=O)NCC3(O)CCCCC3)c2)ncn1` [Example 67, 2-Chloro-N-(1-hydroxy-cyclohexylmethyl)-5-[(6-methoxy-pyrimidin-4-yl)-methyl-amino]-benzamide], the IC50 came out at 337 nM.

Take `COc1nccc(Sc2ccc(Cl)c(C(=O)NCC3(O)CCCCC3)c2)n1` [Example 139, 2-Chloro-N-(1-hydroxy-cyclohexylmethyl)-5-(2-methoxy-pyrimidin-4-ylsulfanyl)-benzamide]: the IC50 stood at 74 nM.

For `CC(O)(c1ccc(Cl)c(C(=O)NCC2(O)CCCCC2)c1)c1cc[nH]c(=O)n1` (single isomer, unassigned) [Example 157, 2-Chloro-N-(1-hydroxy-cyclohexylmethyl)-5-[1-hydroxy-1-(2-oxo-1,2-dihydro-pyrimidin-4-yl)-ethyl]-benzamide], the IC50 was 9 nM.

Regarding `CSc1nccc(Nc2ccc(Cl)c(C(=O)N[C@H](CO)C3CCCCC3)c2)n1` [Example 60, 2-Chloro-N—((S)-1-cyclohexyl-2-hydroxy-ethyl)-5-(2-methylsulfanyl-pyrimidin-4-ylamino)-benzamide], the IC50 turned out to be 1030 nM.

Turning to `CN(C)c1nccc(N(C)c2ccc(Cl)c(C(=O)NCC3(O)CCCCC3)c2)n1` [Example 15, 2-Chloro-5-[(2-dimethylamino-pyrimidin-4-yl)-methyl-amino]-N-(1-hydroxy-cyclohexylmethyl)-benzamide], the IC50 was determined as 177 nM.

Turning to `O=C(NCC1(O)CCC(F)(F)CC1)c1cc(Cc2cc[nH]c(=O)n2)ccc1Cl` [Example 149, 2-Chloro-N-(4,4-difluoro-1-hydroxy-cyclohexylmethyl)-5-(2-oxo-1,2-dihydro-pyrimidin-4-ylmethyl)-benzamide], the IC50 worked out at 33 nM.

In the case of `CN(c1ccc(Cl)c(C(=O)NCC2(O)CCCCC2)c1)c1ccc(F)cc1F` [Example 7, 2-Chloro-5-[(2,4-difluoro-phenyl)-methyl-amino]-N-(1-hydroxy-cyclohexylmethyl)-benzamide], the IC50 came to 876 nM.

Turning to `O=C(NCC1(O)CCCCC1)c1cc(C(F)(F)c2cc[nH]c(=O)n2)ccc1Cl` [Example 151, 2-Chloro-5-[difluoro-(2-oxo-1,2-dihydro-pyrimidin-4-yl)-methyl]-N-(1-hydroxy-cyclohexylmethyl)-benzamide], the IC50 is 31 nM.

In the case of `COc1nc(Cl)cc(N(C)c2ccc(Cl)c(C(=O)NCC3(O)CCCCC3)c2)n1` [Example 63, 2-Chloro-5-[(6-chloro-2-methoxy-pyrimidin-4-yl)-methyl-amino]-N-(1-hydroxy-cyclohexylmethyl)-benzamide], the IC50 was 307 nM.

`CN(c1ccc(Cl)c(C(=O)NCC2(O)CCCCC2)c1)c1ccccc1F` [Example 5, 2-Chloro-5-[(2-fluoro-phenyl)-methyl-amino]-N-(1-hydroxy-cyclohexylmethyl)-benzamide]: the IC50 came out at 531 nM.

For `O=C(NCC1(O)CCCCC1)c1cc(Sc2ccnc(Cl)n2)ccc1Cl` [Example 135, 2-Chloro-5-(2-chloro-pyrimidin-4-ylsulfanyl)-N-(1-hydroxy-cyclohexylmethyl)-benzamide], the IC50 amounted to 266 nM.

For the molecule `O=C(NCC1(O)CCCCC1)c1cc(Oc2ccc(Cl)nn2)ccc1Cl` [Example 127, 2-Chloro-5-(6-chloro-pyridazin-3-yloxy)-N-(1-hydroxy-cyclohexylmethyl)-benzamide], the IC50 is 58 nM.

In the case of `COc1cnnc(Oc2ccc(Cl)c(C(=O)NCC3(O)CCCCC3)c2)c1` [Example 131, 2-Chloro-N-(1-hydroxy-cyclohexylmethyl)-5-(5-methoxy-pyridazin-3-yloxy)-benzamide], the IC50 is 206 nM.

`CN(c1ccc(Cl)c(C(=O)NCC2(O)CCCC2)c1)c1ccnc(Cl)n1` [Example 49, 2-Chloro-5-[(2-chloro-pyrimidin-4-yl)-methyl-amino]-N-(1-hydroxy-cyclopentylmethyl)-benzamide]: the IC50 was found to be 1120 nM.

Regarding `CN(c1ccc(Cl)c(C(=O)NCC2(O)CCCCC2)c1)c1cc[nH]c(=O)n1` [Example 17, 2-Chloro-N-(1-hydroxy-cyclohexylmethyl)-5-[methyl-(2-oxo-1,2-dihydro-pyrimidin-4-yl)-amino]-benzamide], the IC50 came out at 35 nM.

In the case of `O=C(NCC1(O)CCCCC1)c1cc(Nc2ccccc2F)ccc1Cl` [Example 4, 2-Chloro-5-(2-fluoro-phenylamino)-N-(1-hydroxy-cyclohexylmethyl)-benzamide], the IC50 was found to be 103 nM.

With `O=C(NCC1(O)CCCCC1)c1cc(Nc2ccncn2)ccc1Cl` [Example 8, 2-Chloro-N-(1-hydroxy-cyclohexylmethyl)-5-(pyrimidin-4-ylamino)-benzamide], the IC50 came out at 459 nM.

Regarding `CN(c1ccc(Cl)c(C(=O)NCC2(O)CCCCC2)c1)c1cccc(=O)[nH]1` [Example 95, 2-Chloro-N-(1-hydroxy-cyclohexylmethyl)-5-[methyl-(6-oxo-1,6-dihydro-pyridin-2-yl)-amino]-benzamide], the IC50 was 351 nM.

With `CN(c1ccc(Cl)c(C(=O)NCC2(O)CCC(F)(F)CC2)c1)c1ccnc(Cl)n1` [Example 57, 2-Chloro-5-[(2-chloro-pyrimidin-4-yl)-methyl-amino]-N-(4,4-difluoro-1-hydroxy-cyclohexylmethyl)-benzamide], the IC50 is 214 nM.

Consider `O=C(NCC1(O)CCCCC1)c1cc(Oc2cncc(=O)[nH]2)ccc1Cl` [Example 126, 2-Chloro-N-(1-hydroxy-cyclohexylmethyl)-5-(6-oxo-1,6-dihydro-pyrazin-2-yloxy)-benzamide], for which the IC50 was 461 nM.

For `CN(c1ccc(Cl)c(C(=O)NCC2(O)CCCCC2)c1)c1cc(Cl)[nH]c(=O)n1` [Example 64, 2-Chloro-5-[(6-chloro-2-oxo-1,2-dihydro-pyrimidin-4-yl)-methyl-amino]-N-(1-hydroxy-cyclohexylmethyl)-benzamide], the IC50 is 902 nM.

As for `CN(c1ccc(Cl)c(C(=O)NCC2(O)CCCCC2)c1)c1ncccn1` [Example 70, 2-Chloro-N-(1-hydroxy-cyclohexylmethyl)-5-(methyl-pyrimidin-2-yl-amino)-benzamide], the IC50 worked out at 373 nM.

The record behind these values is patent publication US20140073651A1, “BENZAMIDE DERIVATIVES AS P2X7 RECEPTOR ANTAGONISTS” (Actelion Pharmaceuticals Ltd., priority 2011, published 2014).
